Measurements published in patent US5061794A, “Cephalosporin derivatives, and antibacterial agents” (priority 1986, dated 1991).
Where two headings read alike, the source gives them in different places.

Legend:
E. coli CSH(RE45) = assay: microbe, parasite or virus in culture; type: cell-based; settings: Escherichia coli, 16 h, read-out: Minimum Inhibitory Concentration (MIC), *E. coli CSH(RE45), lactamase-producing strain; 10^6 CFU/ml
Experimental: (§1) The in vitro antibacterial activities of the compounds of the present invention against various microorganisms, were measured by the following agar plate dilution method. One platinum loopfull of each test microorganism incubated overnight in Mueller Hinton broth, was inoculated to Mueller Hinton agar (inoculum size: 10^6 CFU/ml). Such culture media containing various antibiotics in various concentrations were prepared. After incubation at 37° C. for 16 hours, the minimum inhibitory concentrations (MIC: μg/ml) were measured.

E. coli CSH2 (RK1) = assay: microbe, parasite or virus in culture; type: cell-based; settings: Escherichia coli, 16 h, read-out: Minimum Inhibitory Concentration (MIC), *E. coli CSH2 (RK1), lactamase-producing strain; 10^6 CFU/ml
Experimental: as §1

Ps. aeruginosa AKR17 = assay: in vitro antibacterial activity, agar plate dilution method (MIC); type: cell-based, Pseudomonas aeruginosa; settings: Pseudomonas aeruginosa, 16 h; Ps. aeruginosa AKR17; 10^6 CFU/ml; read-out: Minimum Inhibitory Concentration (MIC)
Experimental: as §1

Ps. aeruginosa IF03445 = assay: as above; type: cell-based, Pseudomonas aeruginosa; settings: Pseudomonas aeruginosa, 16 h; Ps. aeruginosa IF03445; 10^6 CFU/ml; read-out: Minimum Inhibitory Concentration (MIC)
Experimental: as §1

Ps. aeruginosa AK 109 = assay: as above; type: cell-based, Pseudomonas aeruginosa; settings: Pseudomonas aeruginosa, AK109, 16 h, read-out: Minimum Inhibitory Concentration (MIC)
Experimental: as §1

M. morganii GN5407 = assay: as above; type: cell-based; settings: Morganella morganii, GN5407, 16 h, read-out: Minimum Inhibitory Concentration (MIC), *M. morganii GN5407, lactamase-producing strain; 10^6 CFU/ml
Experimental: as §1

E. cloacae Nek 39 = assay: as above; type: cell-based; settings: Enterobacter cloacae, NEK39, 16 h, read-out: Minimum Inhibitory Concentration (MIC), *E. cloacae Nek 39, lactamase-producing strain; 10^6 CFU/ml
Experimental: as §1

E. cloacae 963 = assay: as above; type: cell-based; settings: 10^6 CFU/ml
Experimental: as §1

E. coli NIHJ JC2 = assay: as above; type: cell-based; settings: Escherichia coli
Experimental: as §1

K. pneumoniae No. 42 = assay: as above; type: cell-based; settings: Klebsiella pneumoniae, 10^6 CFU/ml
Experimental: as §1

K. oxytoca GN10650 = assay: as above; type: cell-based; settings: Klebsiella oxytoca, 10^6 CFU/ml
Experimental: as §1

P. vulgaris No. 33 = assay: as above; type: cell-based; settings: Proteus vulgaris, NO.33, 16 h, read-out: Minimum Inhibitory Concentration (MIC), *P. vulgaris No. 33, lactamase-producing strain; 10^6 CFU/ml
Experimental: as §1

S. marcescens IAM 1184 = assay: as above; type: cell-based; settings: Serratia marcescens, IAM1184, 16 h, read-out: Minimum Inhibitory Concentration (MIC)
Experimental: as §1

S. marcescens No. 16-2 = assay: as above; type: cell-based; settings: Serratia marcescens, NO.162, 16 h
Experimental: as §1

P. vulgaris HX-19 = assay: as above; type: cell-based; settings: Proteus vulgaris, HX19, 16 h, read-out: Minimum Inhibitory Concentration (MIC)
Experimental: as §1

K. pneumoniae PCI-602 = assay: as above; type: cell-based; settings: Klebsiella pneumoniae, PCI602, 16 h, read-out: Minimum Inhibitory Concentration (MIC), K. pneumoniae PCI-602; 10^6 CFU/ml
Experimental: as §1

E. coli GN5482 = assay: as above; type: cell-based; settings: Escherichia coli
Experimental: as §1

S. aureus 209P NIHJ-JC1 = assay: as above; type: cell-based; settings: Staphylococcus aureus, 16 h, read-out: Minimum Inhibitory Concentration (MIC)
Experimental: as §1

A. calcoaceticus No. 4 = assay: as above; type: cell-based, Acinetobacter calcoaceticus; settings: Acinetobacter calcoaceticus, NO.4, 16 h, 10^6 CFU/ml
Experimental: as §1

Ps. cepacia 23 = assay: as above; type: cell-based, Pseudomonas cepacia; settings: Burkholderia cepacia, 16 h; Ps. cepacia 23; 10^6 CFU/ml; read-out: Minimum Inhibitory Concentration (MIC)
Experimental: as §1

[1] = Enterobacter cloacae, 16 h, E. cloacae 963, read-out: Minimum Inhibitory Concentration (MIC)
[2] = 16 h, *K. oxytoca GN10650, lactamase-producing strain, read-out: Minimum Inhibitory Concentration (MIC)
[3] = read-out: Minimum Inhibitory Concentration (MIC)
[4] = S. aureus 209P NIHJ-JC1, 10^6 CFU/ml, 37° C., 16 hours
[5] = NIHJJC2, 16 h, read-out: Minimum Inhibitory Concentration (MIC), E. coli NIHJ JC2, 10^6 CFU/ml, 37° C.
[6] = NO.42, 16 h, read-out: Minimum Inhibitory Concentration (MIC), *K. pneumoniae No. 42, lactamase-producing strain
[7] = S. marcescens IAM 1184, 10^6 CFU/ml
[8] = read-out: Minimum Inhibitory Concentration (MIC), A. calcoaceticus No. 4

## CC(C)(O/N=C(\C(=O)N[C@@H]1C(=O)N2C(C(=O)O)=C(CSc3nnc(-c4ccc(O)cc4)o3)CS[C@H]12)c1csc(N)n1)C(=O)O [compound 4, disodium 7β-[2-(2-aminothiazol-4-yl)-2-(1-carboxylate-1-methylethoxyimino)acetamido]-3-[5-(4-hydroxyphenyl)-1,3,4-oxadiazol-2-yl]thiomethyl-3-cephem-4-carboxylate, reference compound]
E. coli CSH(RE45)
  MIC: 0.78 µg/mL
E. coli CSH2 (RK1)
  MIC: 0.78 µg/mL
Ps. aeruginosa AKR17
  MIC: > 100 µg/mL
Ps. aeruginosa IF03445
  MIC: 25 µg/mL
Ps. aeruginosa AK 109
  MIC: 12.5 µg/mL
M. morganii GN5407
  MIC: 0.78 µg/mL
E. cloacae Nek 39
  MIC: 12.5 µg/mL
E. cloacae 963; [1]
  MIC: 3.12 µg/mL
E. coli NIHJ JC2; NIHJJC2, E. coli NIHJ JC2, 10^6 CFU/ml, 37° C., 16 hours, read-out: Minimum Inhibitory Concentration (MIC)
  MIC: 3.12 µg/mL
K. pneumoniae No. 42; 16 h, *K. pneumoniae No. 42, lactamase-producing strain, read-out: Minimum Inhibitory Concentration (MIC)
  MIC: 1.56 µg/mL
K. oxytoca GN10650; [2]
  MIC: 1.56 µg/mL
P. vulgaris No. 33
  MIC: 0.2 µg/mL
S. marcescens IAM 1184
  MIC: 0.78 µg/mL
S. marcescens No. 16-2; [3]
  MIC: 12.5 µg/mL
P. vulgaris HX-19; P. vulgaris HX-19, 10^6 CFU/ml
  MIC: 0.1 µg/mL
K. pneumoniae PCI-602
  MIC: 0.1 µg/mL
E. coli GN5482; 16 h, *E. coli GN5482, lactamase-producing strain, 10^6 CFU/ml, read-out: Minimum Inhibitory Concentration (MIC)
  MIC: 1.56 µg/mL
S. aureus 209P NIHJ-JC1; [4]
  MIC: 6.25 µg/mL
A. calcoaceticus No. 4; A. calcoaceticus No. 4, read-out: Minimum Inhibitory Concentration (MIC)
  MIC: 25 µg/mL

## CON=C(C(=O)NC1C(=O)N2C(C(=O)O)=C(CSc3nc(-c4ccc(OC(C)=O)c(OC(C)=O)c4)cs3)CSC12)c1csc(N)n1 (stereo not drawn) [compound 40, sodium 3-[4-(3,4-diacetoxyphenyl)-thiazol-2-yl]thiomethyl-7β-[2-(2-aminothiazol-4-yl)-2-methoxviminoacetamido]-3-cephem-4-carboxvlate]
E. coli CSH(RE45)
  MIC: 0.2 µg/mL
E. coli CSH2 (RK1)
  MIC: 0.025 µg/mL
Ps. aeruginosa AKR17
  MIC: < 100 µg/mL
Ps. aeruginosa IF03445
  MIC: 1.56 µg/mL
Ps. aeruginosa AK 109
  MIC: 3.12 µg/mL
M. morganii GN5407
  MIC: 0.1 µg/mL
E. cloacae Nek 39
  MIC: 0.39 µg/mL
E. cloacae 963; Enterobacter cloacae, 963, 16 h, read-out: Minimum Inhibitory Concentration (MIC), E. cloacae 963
  MIC: 0.05 µg/mL
E. coli NIHJ JC2; [5]
  MIC: 0.2 µg/mL
K. pneumoniae No. 42; [6]
  MIC: 0.2 µg/mL
K. oxytoca GN10650; [2]
  MIC: 1.56 µg/mL
P. vulgaris No. 33
  MIC: 0.1 µg/mL
S. marcescens IAM 1184; [7]
  MIC: 0.1 µg/mL
S. marcescens No. 16-2; read-out: Minimum Inhibitory Concentration (MIC), *S. marcescens No. 16-2, lactamase-producing strain, 10^6 CFU/ml
  MIC: 6.25 µg/mL
P. vulgaris HX-19; P. vulgaris HX-19, 10^6 CFU/ml
  MIC: 0.0125 µg/mL
K. pneumoniae PCI-602
  MIC: < 0.006 µg/mL
E. coli GN5482; GN5482, 16 h, read-out: Minimum Inhibitory Concentration (MIC), *E. coli GN5482, lactamase-producing strain, 10^6 CFU/ml
  MIC: 0.78 µg/mL
S. aureus 209P NIHJ-JC1; [4]
  MIC: 1.56 µg/mL
A. calcoaceticus No. 4; [8]
  MIC: 0.78 µg/mL

## CON=C(C(=O)NC1C(=O)N2C(C(=O)O)=C(CSc3nc(-c4ccc(O)c(O)c4)c(CC(=O)O)s3)CSC12)c1csc(N)n1 (stereo not drawn) [compound 58, disodium 7β-[2-(2-aminothiazol-4-yl)-2-methoxyiminoacetamido]-3-[4-(3,4-dihydroxyphenyl)-5-carboxylatemethylthiazol-2-yl]thiomethyl-3-cephem-4-carboxylate]
Ps. cepacia 23
  MIC: 0.025 µg/mL
E. coli CSH(RE45)
  MIC: 0.39 µg/mL
E. coli CSH2 (RK1)
  MIC: 0.0125 µg/mL
Ps. aeruginosa AKR17
  MIC: > 100 µg/mL
Ps. aeruginosa IF03445
  MIC: 25 µg/mL
Ps. aeruginosa AK 109; Ps. aeruginosa AK 109, 10^6 CFU/ml
  MIC: > 100 µg/mL
E. cloacae Nek 39
  MIC: 1.56 µg/mL
E. cloacae 963; [1]
  MIC: 0.1 µg/mL
E. coli NIHJ JC2; [5]
  MIC: 0.39 µg/mL
K. pneumoniae No. 42; [6]
  MIC: 0.1 µg/mL
K. oxytoca GN10650; GN10650, 16 h, read-out: Minimum Inhibitory Concentration (MIC), *K. oxytoca GN10650, lactamase-producing strain
  MIC: 12.5 µg/mL
P. vulgaris No. 33
  MIC: 0.025 µg/mL
S. marcescens IAM 1184; [7]
  MIC: 0.1 µg/mL
S. marcescens No. 16-2; [3]
  MIC: 3.12 µg/mL
P. vulgaris HX-19
  MIC: 0.0125 µg/mL
K. pneumoniae PCI-602
  MIC: < 0.006 µg/mL
E. coli GN5482; GN5482, 16 h, read-out: Minimum Inhibitory Concentration (MIC)
  MIC: 3.12 µg/mL
S. aureus 209P NIHJ-JC1
  MIC: 12.5 µg/mL
A. calcoaceticus No. 4; [8]
  MIC: 0.39 µg/mL
